In one series the target is T1, HSA site II (Homo sapiens, UniProt P02768).
T1 construct: purchased Sigma-Aldrich (Darmstadt, Germany) A8763
Kind of series: HSA dansylglycine (DG) site marker displacement by fluorometry (site II). Format: binding. The following applies: 1 µM HSA, 1 µM DG, pH 7.4 (PBS'). Here is the method:
(§1) Therefore, tryptophan (Trp-214) quenching and dansylglycine (DG) site marker displacement experiments were conducted by fluorometry to obtain information about the binding at sites I and II, respectively, using the same approach reported in our former paper. A representative spectral series is shown in Figure 9a for the Trp-214 quenching experiment, upon the addition of the RhCp*–HQNO2-L-Pro complex and the computed binding constants (logKQ’ and logKDG’) which can be found in Figure 9b, in addition to the corresponding data for the HQCl-L-Pro complexes.
(§2) A Fluoromax (Horiba Jobin Yvon, Longjumeau, France) spectrofluorometer was utilized for fluorescence measurements using a 1 cm × 1 cm quartz cuvette. Samples contained 1 µM HSA or DG and 1 µM HSA at pH 7.4 (PBS’), and the complex concentration was varied between 0 and 53 µM. The measurements were carried out on individual samples. Excitation wavelengths were 295 nm for Trp-214 quenching, and 335 nm for the DG displacement studies, respectively. The calculated conditional stability constants for HSA–complex species were obtained using the computer program HypSpec. Calculations always were based on data obtained from at least two independent measurements. Self-absorbance and inner filter effect had to be taken into account, and corrections were made as was described in our former works.

The target in the next series is T2, HSA site I (Trp-214) (Homo sapiens, UniProt P02768).
T2 construct: purchased Sigma-Aldrich (Darmstadt, Germany) A8763
As to the kind of experiment: HSA Trp-214 quenching by fluorometry (site I). Format: binding. To be noted: 1 µM HSA, pH 7.4 (PBS'), 24 h incubation. As for the experimental part: as §1, §2

Series [1] can be described thus: Stability of the complexes in RPMI medium (UV-vis, 1H NMR). The series is classed as physicochemical. To be noted: compared with serum. The source says: The stability of the RhCp* and RuCym complexes of HQNO2-L-Pro was also monitored in Roswell Park Memorial Institute (RPMI) medium used for the in vitro cell studies (in the case of Colo cells), and in blood serum using UV-vis and ^1H NMR spectroscopy. […] Despite these changes, the dissociation of the complexes is not likely as the liberation of the unbound ligand was not observed; thus, the complexes most probably form ternary complexes with the components of the serum or the medium. In order to further study the reactivity of these complexes with bioligands, their interaction with human serum albumin (HSA) and selected oligopeptides (also used as binding models of HSA) was assayed.

The nature of series [2]: Complex formation kinetics (UV-vis, tandem cuvette). To be noted: 50 μM triaqua complex + 50 μM ligand. The series is classed as physicochemical. As for the experimental part: The complex formation kinetics for the RhCp* and RuCym complexes was also assayed and compared at pH 1 and 4 (Figure S20). UV-vis spectral changes were followed in time after the triaqua complex [M(arene)(H2O)3]^2+ (50 μM) and the ligand (50 μM) were mixed in a tandem cuvette. The equilibrium was reached much faster in the case of the RhCp* complex (~5 min at pH 1, ~1 min at pH 4), as compared to the RuCym complex (~7 h at pH 1, ~45 min at pH 4).

A further series relates to Ac-Ala-His-Ala-NH2 (AHA). Kind of series: Mixed-ligand adduct formation with His-containing oligopeptide AHA. The series is classed as binding. As for the experimental part: According to numerous papers on the binding of half-sandwich organometallic complexes to HSA [35, 36], surface exposed histidine (His) side chains are the most feasible coordinating moieties. […] The equilibrium could be reached within 3–10 min in the case of the RhCp* complex on the basis of the UV-vis spectral changes (Figure S28), and similar conditional constants (logK’) were computed with these model compounds for the formation of mixed-ligand RhCp* complexes; namely logK’ 5.00 ± 0.1, 4.4 ± 0.1, 5.1 ± 0.1 were obtained in the case of FHA, AHA, and mim, respectively. […] In the case of the oligopeptides, formation of isomers was detected which might be explained by the existence of two chiral centers, namely the metal ion and His-CHα. The adduct formation of the RuCym complex with mim was quantitative, hindering the determination of the logK’ value (meaning logK’ > 5.5). […]
An Agilent Cary 8454 diode array spectrophotometer (Santa Clara, CA, USA) was used to obtain UV-vis spectra in the wavelength range 200–1000 nm, while spectra were recorded for the Fe(II)-containing samples using an Avantes (Avantes B.V., Apeldoorn, The Nederlands) AvaSpec-ULS2048CL-EVO spectrometer with an AvaLight-DHc light source and FDP-7UVIR200-2-VAR transmission dip probe. […]

Each structure is given as a SMILES string.

T2 sequence (P02768 25-609): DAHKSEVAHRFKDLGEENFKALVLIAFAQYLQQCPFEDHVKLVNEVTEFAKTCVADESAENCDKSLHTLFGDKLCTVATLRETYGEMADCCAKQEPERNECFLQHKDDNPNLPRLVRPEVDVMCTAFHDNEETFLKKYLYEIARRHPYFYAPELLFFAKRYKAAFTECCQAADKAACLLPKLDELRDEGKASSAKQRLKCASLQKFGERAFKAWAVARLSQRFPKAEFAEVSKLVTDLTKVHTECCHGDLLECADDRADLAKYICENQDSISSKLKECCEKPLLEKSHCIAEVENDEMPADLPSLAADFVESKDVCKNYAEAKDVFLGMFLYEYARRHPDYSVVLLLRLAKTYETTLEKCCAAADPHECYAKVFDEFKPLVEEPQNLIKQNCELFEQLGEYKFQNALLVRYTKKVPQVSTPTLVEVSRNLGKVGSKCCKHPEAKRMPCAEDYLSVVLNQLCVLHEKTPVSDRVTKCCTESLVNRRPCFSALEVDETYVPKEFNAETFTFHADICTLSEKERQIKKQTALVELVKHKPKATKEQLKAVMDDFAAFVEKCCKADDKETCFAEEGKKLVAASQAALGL
T1 sequence (P02768 25-609): as above

Turning to `O=C(O)[C@@H]1CCCN1Cc1cc([N+](=O)[O-])c2cccnc2c1O` [HQNO2-L-Pro, (2S)-1-((8-hydroxy-5-nitroquinolin-7-yl)methyl)pyrrolidin-1-ium-2-carboxylate], the Kd at HSA site II (read-out: DG marker displacement constant logKDG' (converted)) is 33.9 µM; at HSA site I (Trp-214) (read-out: quenching constant logKQ' (converted)), 16.6 µM.
For `CC1=C(C)[C](C)([Rh]([Cl])[O]c2c(C[NH+]3CCC[C@H]3C(=O)O)cc([N+](=O)[O-])c3cccnc23)C(C)=C1C.[Cl-]` [RhCp*-HQNO2-L-Pro, [RhCp*(HQNO2-L-Pro)Cl]Cl], in series [1], the “spectral changes on incubation in RPMI medium” value is “more significant”. Also, the figures for the “time to reach equilibrium of complex formation” value in series [2] (pH 1) and in series [2] (pH 4) were ~ 5 min and ~ 1 min, respectively. Also, the “conditional constant logK' of mixed-ligand complex” value in the series with Ac-Ala-His-Ala-NH2 (AHA) (pH 7.4, UV-vis) is recorded as 4.4 ± 0.1. Further, the “DG marker displacement constant logKDG'” value at HSA site II worked out at 5.6. On HSA site I (Trp-214), the “quenching constant logKQ'” value was 5.1.
With `Cc1ccc(C(C)C)cc1.O=C(O)[C@@H]1CCC[NH+]1Cc1cc([N+](=O)[O-])c2ccc[n+]3c2c1[O][Ru-]3[Cl].[Cl-]` [RuCym-HQNO2-L-Pro, [RuCym(HQNO2-L-Pro)Cl]Cl], the “spectral changes on incubation in RPMI medium” value in series [1] was “more significant”. Moreover, the “time to reach equilibrium of complex formation” value in series [2] (pH 1) is given as ~ 7 h; in series [2] (pH 4), ~ 45 min. Also, the “conditional constant logK' of adduct” value with Ac-Ala-His-Ala-NH2 (AHA) (pH 7.4, 1H NMR peak integrals, 24 h incubation) worked out at 5.1 ± 0.2.

The record behind these values is article PMC9820345, “Metal Complexes of a 5-Nitro-8-Hydroxyquinoline-Proline Hybrid with Enhanced Water Solubility Targeting Multidrug Resistant Cancer Cells” (International Journal of Molecular Sciences, 2022).
